Assay results published in patent US20110045027A1, “Adjuvant” (Glaxo Group Limited, priority 2005, published 2011).

Columns and labels:
mouse skin = experiment: In vivo delivery by intradermal injection and luciferase assay (pGL3CMV plasmid); parameters: species or system Balb/c×C3H F1 female mice; conditions: FIG. 3, OPTIMEM, 0.5:1 (w/w gemini:DNA)
Text: Plasmid pGL3CMV is a luciferase expression vector based upon pGL3 Basic, (Promega Corporation., Madison, Wis., USA), where the CMV immediate early promoter drives luciferase expression. The plasmid pGL3CMV was used in all gene expression studies in mouse skin biopsies and has been described in WO03/061636.
Gemini surfactants were mixed with plasmid DNA by drop by drop addition of the diluted gemini surfactant formulation (in OPTIMEM) to the diluted plasmid DNA formulation (in OPTIMEM) at room temperature whilst the mixture was being mixed using a Vortex mixer (Mini Vortexer, VWR). […]
Plasmid DNA was delivered into the skin of Balb/c×C3H F1 female mice. […] Groups of 8-10 animals (or 4 to 5 animals with two injection sites) were analysed for skin gene expression. […]
Skin samples were thawed to room temperature and disrupted in 500 ul of Passive Lysis Buffer™ (Promega Corporation, Madison, Wis., USA) using an IKA Labortechnic Ultra turrax T8 polytron. Luciferase enzyme activity was determined using a luciferase assay kit (Promega). […] Luciferase activity (RLU) was measured as counts per minute on the Victor 2 1420 multilabel HTS counter on the luminescence program (Wallac, Perkin Elmer). Total protein concentration was calculated by a Coomassie Plus protein assay reagent kit (Perbio) using the manufacturer's protocol. […] The absorbance was measured at 595 nm on a Molecular Devices Spectra Max 340. […]

[1] = Particle size of gemini surfactant solutions by quasi-elastic light scattering (QELS); type: physicochemical; conditions: fresh solutions stored at 4° C., particle size at bi-weekly intervals, 10-week study, FIG. 28
Description: All gemini surfactants were prepared from lyophilised stocks by vortex re-suspension in pure water at a stock concentration of 1 mg/ml stored at 4° C. Gemini surfactants were diluted either in pure water or were directly diluted in Optimem®1 (GIBCO Invitrogen) for immediate use. Where gemini surfactants were formulated together with other helper lipids such as DOPE, these were co-lyophilised at a 1:1, (w/w) ratio and similarly vortex re-suspended in pure water at a stock concentration of 1 mg/ml stored at 4° C.
(§1) The size of the particles formed by gemini surfactants and their complexes with plasmid DNA was measured by quasi-elastic light scattering (QELS) (Finsy, R., Advances in Colloid and Interface Science (1994) 52 (19 September):79-143; Gittings, M. R., and Saville, D. A., Colloids and Surfaces A: Physicochemical and Engineering Aspects (1998) 141: 111-117). Samples (50 μl) were analysed using a Brookhaven Instruments Corporation particle size analyser (BIC 90 Plus) following the manufacturer's instructions: 10 measurements, each consisting of 10 runs were taken per sample. […] The average particle size was automatically derived from the raw data by the instrument and expressed as the mean hydrodynamic diameter in nanometers (nm). […]
The colloidal properties of gemini surfactant solutions were monitored over time in order to analyse their apparent instability in greater detail. […]

plasmid DNA (pdpSC18) = experiment: Particle size of gemini surfactant-plasmid DNA complexes (lipoplexes) by QELS; type: physicochemical; conditions: buffers covering pH 6.5 to pH 4.5, FIG. 33
Description: Gemini surfactants were mixed with plasmid DNA by drop by drop addition of the diluted gemini surfactant formulation (in OPTIMEM) to the diluted plasmid DNA formulation (in OPTIMEM) at room temperature whilst the mixture was being mixed using a Vortex mixer (Mini Vortexer, VWR). The ratio of gemini surfactant to plasmid DNA was varied from 0.2:1 (w/w) to 4:1 (w/w) so that for a final volume of 50 ul per delivery, the formulation contained 10 ug of plasmid DNA with gemini surfactant at the correct ratio. Gemini: DNA mixtures or complexes were left at room temperature for 15 minutes post mixing to form and were then delivered to animals within 15 to 30 minutes. […]
as §1

Balb/c mice [2] = experiment: Humoral responses by ELISA, antigen-specific whole IgG (HIV RNG fusion protein); type: in vivo; conditions: Example 48; intradermal delivery, FIG. 11, day 14 post-boost
Description: (§2) Acclimatised 6-8 week old Female Balb/c mice were maintained under general anaesthesia using an oxygen-controlled inhaled Isoflourane mask for application by intradermal injection to the pre-shaved lower back above the base of the tail. Where necessary mice were given Rimadyl (Carprofen) as an analgesic in a sub-cutaneous dose of 5 mg/Kg, diluted 1:10 and delivered at 20 μl/mouse. Injections of up to 50 μl of freshly formulated DNA with or without gemini surfactant were given via BD 0.5 ml insulin syringes with 29 g needles.
The humoral response was assessed by measuring antigen-specific whole IgG antibody levels (eg. to HIV RNG fusion protein) in the serum samples collected after primary and boost immunisation. […] The amount of bound antibody was determined after 4 further washes (as above) followed by addition of TMB substrate solution (T-8540-Sigma). After 30 minutes at 20° C. protected from light, the reaction is stopped with 1M sulphuric acid and absorbance read at 450 nm. […]
Humoral responses to RNG fusion peptide (WO03/025003), as serum whole IgG, were monitored at day 14 post-boost (FIG. 11). […]
Humoral responses were also analysed in this example. The humoral responses were measured as whole serum IgG and data were collected both after a homologous prime and boost and again after a heterologous boost with NHP Adenovirus p6GRN, see FIG. 42. […]

Balb/c mice [3] = experiment: Cellular immune responses by IFN-γ / IL2 ELISPOT after immunisation with plasmid p7313iTrng; type: in vivo; conditions: Example 48; intradermal delivery, FIGS. 5 to 10
Text: Plasmid p7313iTrng, is a vector where the CMV immediate early promoter drives the expression of a fusion antigen, RNG, consisting of parts of the HIV reverse transcriptase, nef and gag genes. The plasmid p7313iTrng was used in all immune response studies in mouse (WO03/025003).
as §2, with “Injections of up to 50 μl of freshly formulated DNA with or without gemini surfactant were given via BD 0.5 ml insulin syringes with 29 g needles.” left out
Mice were killed by cervical dislocation and spleens were collected into ice-cold PBS. […] After two washes in PBS to remove particulate matter the concentration of cells in the single cell suspension was assessed by counting in a Guava Flow Cytometer. […] After overnight culture, IFN-γ or IL2 producing cells were visualised by application of anti-murine IFN-γ-biotin or IL2-biotin labelled antibody (Pharmingen) followed by streptavidin-conjugated alkaline phosphatase and quantitated using image analysis.
Representatives of 3 classes of gemini surfactants were assessed for their ability to induce both cellular and humoral immune responses upon delivery to mouse skin through the intradermal route. […]

Row | Compound | gene delivery and/or expression in mouse skin versus DNA with DMRIE-C or electroporation (mouse skin) | storage time for which the solution remained stable before particle formation [1] | pH sensitivity of lipoplexes (particle size versus pH) (plasmid DNA (pdpSC18)) | level of humoral immune responses versus PMED at boost (Balb/c mice [2]) | level of cellular immune responses versus PMED at boost (Balb/c mice [3])
1 | CCCCCCCC/C=C\CCCCCCCC(=O)NCCCN(CCCCN(CCCNC(=O)CCCCCCCCCCCCCCCCC)C(=O)[C@H](N)CCCCN)C(=O)[C@H](N)CCCCN [GSC103 D-Lys, Oleic Acid, Stearic Acid] | exception |  |  |  | 
2 | CCCCCCCC/C=C\CCCCCCCC(=O)NCCCN(CCCCN(CCCNC(=O)CCCCCCC/C=C\CCCCCCCC)C(=O)[C@@H](N)CCCCN)C(=O)[C@@H](N)CCCCN [GSC103-L-Lys] |  | 2 weeks | fluctuated with falling pH | comparable to those induced by PMED at boost | comparable to those induced by PMED at boost
